From ChEMBL document CHEMBL1128648, “The enantioselective synthesis and antiinflammatory activity of novel aryl-sphingolipid PKC inhibitors” (Bioorg Med Chem Lett, 1995)

Experiments:
Protein kinase C (PKC) = assay: Inhibition of Protein kinase C isolated from rat brain
Canis familiaris = species on record: Canis familiaris; assay: Inhibition of PKC-dependent neutrophil superoxide burst in dogs; assay type: functional, Canis lupus familiaris
Mus musculus [1] = species on record: Mus musculus; assay: Anti-inflammatory activity on the mice ears using antiinflammatory assay (TPAEE); assay type: functional
Mus musculus [2] = species on record: Mus musculus; assay: Percent change in punch weights [right ear(received drug) -left ear(received vehicle)] was determined in mice at a dose of 1 mg/ear; assay type: functional

IC50 (Protein kinase C (PKC))	IC50 (Canis familiaris)	IC50 (Canis familiaris; Canis lupus familiaris)	SMILES	ED50 (Mus musculus [1])	Change (Mus musculus [2])
20.1 µM			CCCCCCCCCCC#Cc1csc([C@@H](O)[C@@H](N)CO)c1.Cl (stereo in doubt; 18a)		
	1.5 µM		CC(=O)O.CCCCCCCCCCC#Cc1ccc([C@@H](O)[C@@H](N)CO)s1 (racemic)	0.24 mg ear-1	
23 µM			CCCCCCCCCCC#Cc1csc([C@@H](O)[C@@H](N)CO)c1.Cl (stereo in doubt; 19a)		
	1.5 µM		CCCCCCCCCCC#Cc1csc([C@@H](O)[C@@H](N)CO)c1 (racemic)		
21.3 µM		1.8 µM	CC(=O)O.CCCCCCCCCCC#Cc1ccc([C@@H](O)[C@@H](N)CO)s1		-81%
		4.2 µM	CCCCCCCCCCCCC/C=C/[C@@H](O)[C@@H](N)CO [SPHINGOSINE]	0.31 mg ear-1	-74%
21.8 µM	2.2 µM		CC(=O)O.CCCCCCCCCCC#Cc1cccc([C@@H](O)[C@@H](N)CO)c1 (stereo in doubt; 10 (-))		-74%
28.8 µM			CCCCCCCCCCC#Cc1csc([C@@H](O)[C@@H](N)CO)c1.Cl (stereo in doubt; 3a (+/-))	0.23 mg ear-1	-81%
20.1 µM		1.3 µM	CCCCCCCCCCC#Cc1csc([C@@H](O)[C@@H](N)CO)c1.O=C(O)CCC(=O)O (stereo in doubt; 18 (-))		-73%
		2.4 µM	CC(=O)O.CCCCCCCCCCC#Cc1cccc([C@@H](O)[C@@H](N)CO)c1 (racemic)	0.34 mg ear-1	-82%
19.5 µM			CC(=O)O.CCCCCCCCCCC#Cc1cccc([C@@H](O)[C@@H](N)CO)c1 (stereo in doubt; 11(+))		
23 µM	1 µM		CCCCCCCCCCC#Cc1csc([C@@H](O)[C@@H](N)CO)c1.O=C(O)CCC(=O)O (stereo in doubt; 19 (+))		-63%
